What was measured:
Type in all cases: biochemical
Settings in all cases: 100 μg/mL
[1] = ABTS+ free radical scavenging experiment
Description: 2. ABTS^+ Free Radical Scavenging Experiment: 2.1 Preparation of PBS buffer solution: weighing 8 g of sodium chloride, 0.2 g of potassium chloride, 0.24 g of monopotassium phosphate, and 3.62 g of disodium hydrogen phosphate dodecahydrate and putting them into a 1000 ml beaker, adding 800 ml of distilled water, stirring to dissolve, and adjusting the pH value to 7.4 by using hydrochloric acid or sodium hydroxide, transferring into a 1000 ml volumetric flask, adding distilled water to dilute, shaking evenly, and standing for later use. […] 2.5 Operation steps: accurately sucking 0.5 ml of test solution and 5 ml of ABTS working solution, and mixing uniformly; accurately sucking 0.5 ml of test solution and 5 ml of PBS buffer solution, and mixing uniformly; accurately sucking 5 ml of ABTS working solution and 0.5 ml of PBS buffer solution, and mixing uniformly, the absorbance was measured immediately at 734 nm, and the free radical removal rate was calculated according to the following formula: IR%=[1−(Ai−Aj)/A0]*100%; in which, Ai represents the absorbance of the mixture of the test solution and ABTS, Aj represents the absorbance of the mixture of the test solution and solvent, and A0 represents the absorbance of the mixture of ABTS and solvent. […]

[2] = DPPH free radical scavenging experiment
Description: 1. DPPH Free Radical Scavenging Experiment: 1.1 Preparation of DPPH ethanol solution: precisely weighing 4 mg of […], putting into a 100 ml brown volumetric flask, and adding 50 ml of ethanol, the ultrasonic treatment was carried out for 30 seconds, ethanol was used for fixing the volume to scale, shaking, and the product needs to be freshly prepared when needed. 1.2 Preparation of test solution: precisely weighing 10 mg of walnut oligopeptide powder, and putting into a 50 ml brown volumetric flask, adding 30 ml of ethanol, carrying out ultrasonic treatment for 5 minutes, diluting with ethyl alcohol for fixing the volume to scale, and shaking. […]

[3] = SRSA superoxide anion free radical scavenging experiment
Description: 3. SRSA Superoxide Anion Free Radical Scavenging Experiment: 3.1 Preparation of 0.1 moL/L PBS buffer solution (pH 7.4): 80 g of sodium chloride, 2 g of potassium chloride, 2.4 g of monopotassium phosphate and 23.1 g of dipotassium hydrogen phosphate trihydrate were weighted and placed in 1000 ml beaker, adding 600 ml of distilled water, stirring to dissolve, and adjusting the pH to […] with hydrochloric acid or sodium hydroxide, transferring into 1000 ml volumetric flask, adding distilled water to dilute to the scale, shaking evenly, and standing for later use. […] 3.7 Operation steps: accurately sucking 0.5 ml of test solution and 5 ml of the working solution, and uniformly mixing; accurately sucking 0.5 ml of test solution and 5 ml of distilled water, and uniformly mixing; accurately sucking 5 ml of the working solution and 0.5 ml of distilled water, and uniformly mixing, the absorbance was determined immediately at 560 nm, and the free radical scavenging rate was calculated according to the following formula: IR%=[1−(Ai−Aj)/A0]*100%; in which, Ai represents the absorbance of the mixture of the test solution and […], Aj represents the absorbance of the mixture of the test solution and the solvent; and A0 represents the absorbance of the mixture of SRSA and solvent. […]

O=C1O[C@H]([C@@H](O)CO)C(O)=C1O [Vitamin C]
ABTS^+ scavenging rate % [1]: 98.1% | DPPH scavenging rate % [2]: 97.2% | SRSA scavenging rate % [3]: 80.1%
